Test results: EP0025288A1, “Derivatives of monic acid, processes for their preparation, compositions containing them and their preparation” (priority 1979, dated 1981)

How the values were obtained:
Assay type in all cases: cell-based
[1] = system: Strep pneumoniae CN33; test: MIC, human bacteria, serial dilution in nutrient agar; conditions: nutrient agar containing 5% 'chocolated' horse blood
[2] = system: Pasteurella multocida 1633; test: as above; conditions: nutrient agar containing 5% 'chocolated' horse blood
[3] = system: M. gallisepticum S6; test: MIC, anti-mycoplasmal, Friis broth solidified with 0.9% agarose; conditions: inoculum 10^3 to 10^5 C.F.U., 6 days incubation at 37°C
[4] = system: Staph aureus Russell; test: MIC, human bacteria, serial dilution in nutrient agar; conditions: nutrient agar containing 5% 'chocolated' horse blood
[5] = system: M. suipneumoniae LABER; test: MIC, anti-mycoplasmal, Friis broth solidified with 0.9% agarose; conditions: inoculum 10^3 to 10^5 C.F.U., 6 days incubation at 37°C
[6] = system: Staph aureus B4 (pen resis); test: MIC, veterinary bacteria; conditions: veterinary bacteria (Table 2)
[7] = system: M. suipneumoniae NB12; test: MIC, anti-mycoplasmal, Friis broth solidified with 0.9% agarose; conditions: inoculum 10^3 to 10^5 C.F.U., 6 days incubation at 37°C
[8] = system: Haemophilus influenzae Q1; test: MIC, human bacteria, serial dilution in nutrient agar; conditions: nutrient agar containing 5% 'chocolated' horse blood
[9] = system: M. suipneumoniae MS 16; test: MIC, anti-mycoplasmal, Friis broth solidified with 0.9% agarose; conditions: inoculum 10^3 to 10^5 C.F.U., 6 days incubation at 37°C
[10] = system: M. suipneumoniae TAM 6N; test: as above; conditions: inoculum 10^3 to 10^5 C.F.U., 6 days incubation at 37°C
[11] = system: M. suipneumoniae NCTC 10110; test: as above; conditions: inoculum 10^3 to 10^5 C.F.U., 6 days incubation at 37°C
[12] = system: Strep pyogenes C 2761; test: MIC, human bacteria, serial dilution in nutrient agar; conditions: nutrient agar containing 5% 'chocolated' horse blood
[13] = system: E coli NCTC 10418; test: MIC, veterinary bacteria; conditions: veterinary bacteria (Table 2)
[14] = system: Haemophilus influenzae Wy21; test: MIC, human bacteria, serial dilution in nutrient agar; conditions: nutrient agar containing 5% 'chocolated' horse blood
[15] = system: Strep agalactiae SPA1; test: MIC, veterinary bacteria; conditions: veterinary bacteria (Table 2)
[16] = system: M. suipneumoniae UCD 1; test: MIC, anti-mycoplasmal, Friis broth solidified with 0.9% agarose; conditions: inoculum 10^3 to 10^5 C.F.U., 6 days incubation at 37°C
[17] = system: Past Haemolytica PA5; test: MIC, veterinary bacteria; conditions: veterinary bacteria (Table 2)
[18] = system: M. bovigenitalium ATCC 14173; test: MIC, anti-mycoplasmal, Friis broth solidified with 0.9% agarose; conditions: inoculum 10^3 to 10^5 C.F.U., 6 days incubation at 37°C
[19] = system: M. hyorhinis ATCC 25021; test: as above; conditions: inoculum 10^3 to 10^5 C.F.U., 6 days incubation at 37°C
[20] = system: Strep faecalis I; test: MIC, human bacteria, serial dilution in nutrient agar; conditions: nutrient agar containing 5% 'chocolated' horse blood
[21] = system: Neisseria catarrhalis 1502; test: as above; conditions: Neisseria catarrhalis 1502 (footnote a); nutrient agar containing 5% 'chocolated' horse blood
[22] = system: M. suipneumoniae JF 435; test: MIC, anti-mycoplasmal, Friis broth solidified with 0.9% agarose; conditions: inoculum 10^3 to 10^5 C.F.U., 6 days incubation at 37°C
[23] = system: Past multocida PA1; test: MIC, veterinary bacteria; conditions: veterinary bacteria (Table 2)
[24] = system: Corynebacterium pyogenes CY1; test: MIC, veterinary bacteria; conditions: veterinary bacteria (Table 2)
[25] = system: M. suipneumoniae ATCC 25095; test: MIC, anti-mycoplasmal, Friis broth solidified with 0.9% agarose; conditions: inoculum 10^3 to 10^5 C.F.U., 6 days incubation at 37°C
[26] = system: Staph aureus Oxford; test: MIC, veterinary bacteria; conditions: veterinary bacteria (Table 2)
[27] = system: Bord bronchisptica BO9; test: MIC, veterinary bacteria; conditions: veterinary bacteria (Table 2)
[28] = system: Past multocida PA2; test: MIC, veterinary bacteria; conditions: veterinary bacteria (Table 2)
[29] = system: M. suipneumoniae PW/C/210; test: MIC, anti-mycoplasmal, Friis broth solidified with 0.9% agarose; conditions: inoculum 10^3 to 10^5 C.F.U., 6 days incubation at 37°C
[30] = system: M. suipneumoniae Str. 11; test: as above; conditions: inoculum 10^3 to 10^5 C.F.U., 6 days incubation at 37°C
[31] = system: M. suipneumoniae HK(2); test: as above; conditions: inoculum 10^3 to 10^5 C.F.U., 6 days incubation at 37°C
[32] = system: M. bovis NCTC 10131; test: microbe, parasite or virus in culture; conditions: M. bovis NCTC 10131; inoculum 10^3 to 10^5 C.F.U., 6 days incubation at 37°C
[33] = system: M. pneumoniae ATCC 15492; test: MIC, anti-mycoplasmal, Friis broth solidified with 0.9% agarose; conditions: inoculum 10^3 to 10^5 C.F.U., 6 days incubation at 37°C
[34] = system: M. hyorhinis ATCC 23234; test: as above; conditions: inoculum 10^3 to 10^5 C.F.U., 6 days incubation at 37°C
[35] = system: Bacillus subtilis 6633; test: MIC, human bacteria, serial dilution in nutrient agar; conditions: nutrient agar containing 5% 'chocolated' horse blood
[36] = system: S dublin S7; test: MIC, veterinary bacteria; conditions: veterinary bacteria (Table 2)
[37] = system: P mirabilis 889; test: MIC, human bacteria, serial dilution in nutrient agar; conditions: nutrient agar containing 5% 'chocolated' horse blood
[38] = system: Strep pyogenes B 2788; test: as above; conditions: nutrient agar containing 5% 'chocolated' horse blood
[39] = system: Strep suis (group D) SPS11; test: MIC, veterinary bacteria; conditions: veterinary bacteria (Table 2)
[40] = system: E coli ESS; test: MIC, human bacteria, serial dilution in nutrient agar; conditions: nutrient agar containing 5% 'chocolated' horse blood
[41] = system: Staph aureus Oxford; test: as above; conditions: nutrient agar containing 5% 'chocolated' horse blood
[42] = system: Strep uberis SPU1; test: MIC, veterinary bacteria; conditions: veterinary bacteria (Table 2)
[43] = system: M. dispar NCTC 10125; test: MIC, anti-mycoplasmal, Friis broth solidified with 0.9% agarose; conditions: inoculum 10^3 to 10^5 C.F.U., 6 days incubation at 37°C
[44] = system: E coli E1; test: MIC, veterinary bacteria; conditions: veterinary bacteria (Table 2)
[45] = system: M. suipneumoniae J2206/183b; test: MIC, anti-mycoplasmal, Friis broth solidified with 0.9% agarose; conditions: inoculum 10^3 to 10^5 C.F.U., 6 days incubation at 37°C
[46] = system: Staph aureus 152 (pen sens); test: MIC, veterinary bacteria; conditions: veterinary bacteria (Table 2)
[47] = system: Strep dysgalaciae SPD1; test: MIC, veterinary bacteria; conditions: veterinary bacteria (Table 2)
[48] = system: M. hyosynoviae ATCC 25591; test: MIC, anti-mycoplasmal, Friis broth solidified with 0.9% agarose; conditions: inoculum 10^3 to 10^5 C.F.U., 6 days incubation at 37°C
[49] = system: Strep pyogenes A 64/848; test: MIC, human bacteria, serial dilution in nutrient agar; conditions: nutrient agar containing 5% 'chocolated' horse blood
[50] = system: E coli NCTC 10418; test: as above; conditions: nutrient agar containing 5% 'chocolated' horse blood
[51] = system: Ps aeruginosa 10662; test: as above; conditions: nutrient agar containing 5% 'chocolated' horse blood
[52] = system: Erysipelothrix rhusiopathiae NCTC 8163; test: MIC, veterinary bacteria; conditions: veterinary bacteria (Table 2)
[53] = system: Bord bronchiseptica BO8; test: MIC, veterinary bacteria; conditions: veterinary bacteria (Table 2)
[54] = system: S typhimurium S18; test: MIC, veterinary bacteria; conditions: veterinary bacteria (Table 2)
[55] = system: K aerogenes A; test: MIC, human bacteria, serial dilution in nutrient agar; conditions: nutrient agar containing 5% 'chocolated' horse blood
[56] = system: Staph aureus W2827; test: as above; conditions: nutrient agar containing 5% 'chocolated' horse blood

5-Acetylpentyl monate A [Example 7] was tested, and the MIC [1] was 0.5 µm/ml, the MIC [2] was 0.5 µm/ml and the “in vitro MIC” value [3] was 2.5 µg/mL. For the same substance, the MIC [4] was 1.0 µm/ml, the “in vitro MIC” value [5] was 0.25 µg/mL and the MIC [6] was “.625 µg/mL”. The “in vitro MIC” value [7] was 0.25 µg/mL, the MIC [8] was 0.2 µm/ml and the “in vitro MIC” value [9] was 0.25 µg/mL. For the same substance, the “in vitro MIC” value [10] was 0.5 µg/mL, the “in vitro MIC” value [11] was 0.5 µg/mL and the MIC [12] was 2.5 µm/ml. The MIC [13] was 80 µg/mL, the MIC [14] was 0.1 µm/ml and the MIC [15] was “.625 µg/mL”. The “in vitro MIC” value [16] was 0.5 µg/mL, the MIC [17] was 5 µg/mL and the “in vitro MIC” value [18] was 0.025 µg/mL. For the same substance, the “in vitro MIC” value [19] was 0.1 µg/mL, the MIC [20] was over 100 µm/ml and the MIC [21] was “^a0.5 µm/ml”. The “in vitro MIC” value [22] was 0.25 µg/mL, the MIC [23] was “.625 µg/mL” and the MIC [24] was over 80 µg/mL. For the same substance, the “in vitro MIC” value [25] was 0.25 µg/mL, the MIC [26] was “.625 µg/mL” and the MIC [27] was 5 µg/mL. For the same substance, the MIC [28] was “.312 µg/mL”, the “in vitro MIC” value [29] was 0.25 µg/mL and the “in vitro MIC” value [30] was 0.25 µg/mL. The “in vitro MIC” value [31] was 0.5 µg/mL, the “in vitro MIC” value [32] was under 0.01 µg/mL and the “in vitro MIC” value [33] was 0.5 µg/mL. For the same substance, the “in vitro MIC” value [34] was 0.1 µg/mL, the MIC [35] was 0.5 µm/ml and the MIC [36] was over 80 µg/mL. It also gave an MIC [37] of over 100 µm/ml, an MIC [38] of 2.5 µm/ml and an MIC [39] of 5 µg/mL. For the same substance, the MIC [40] was 0.5 µm/ml, the MIC [41] was 1.0 µm/ml and the MIC [42] was “.156 µg/mL”. For the same substance, the “in vitro MIC” value [43] was 0.05 µg/mL, the MIC [44] was over 80 µg/mL and the “in vitro MIC” value [45] was 0.5 µg/mL. For the same substance, the MIC [46] was “.625 µg/mL”, the MIC [47] was “.312 µg/mL” and the “in vitro MIC” value [48] was 0.025 µg/mL. The MIC [49] was 0.5 µm/ml, the MIC [50] was over 100 µm/ml and the MIC [51] was over 100 µm/ml. For the same substance, the MIC [52] was 40 µg/mL, the MIC [53] was 40 µg/mL and the MIC [54] was over 80 µg/mL. For the same substance, the MIC [55] was over 100 µm/ml and the MIC [56] was 2.5 µm/ml.
